Earlier results, collected in patent publication US8911790B2, “Solid composition containing a hypothiocyanite salt” (Alaxia SAS, priority 2011, dated 2014).

Conditions: hypothiocyanite ion, instability of the species

N#CSO [hypothiocyanite ion, hypothiocyanite]
half-life: less than 24 hours
